Measurements reported in the Kinase Knowledgebase extract (Sharma et al. 2016).
Values joined by “and” are separate entries in the source; they are usually repeats but may differ in a detail not shown here. Identical values can stand only once.

Target: CDK2 (human) (UniProt P24941)
Assay: Enzyme Assay
Conditions: not given

SMILES	IC50
CN1CC[C@@H](c2c(O)cc(O)c3c(=O)cc(C4CCCCC4Cl)oc23)[C@@H](O)C1 (stereo partly specified)	200 nM and 60 nM
CC(C)n1cnc2c(NCc3ccc(-c4ccccc4)cc3)nc(NC[C@H](C)NC(=O)OC(C)(C)C)nc21	4000 nM and 11000 nM
CCn1cnc2c(NCc3ccc(Cl)cc3)nc(N[C@H]3CCCC[C@H]3N)nc21	1000 nM

Target: CDK2 (human) (UniProt P24941)
Assay: Enzyme Assay
Conditions: not given
Remark: another data set of the same source

SMILES	IC50
CC(C)n1cnc2c(NCc3ccc(-c4ccccc4)cc3)nc(NC[C@H](C)NC(=O)OC(C)(C)C)nc21	3000 nM and 1000 nM
CCn1cnc2c(NCc3ccc(Cl)cc3)nc(N[C@H]3CCCC[C@H]3N)nc21	100 nM

Target: CDK2;CDK1 (human) (UniProt P24941)
Assay: Cell-Based Assay
Conditions: hela-s3

SMILES	GI50
CC(C)n1cnc2c(NCc3ccc(-c4ccccc4)cc3)nc(N3CCC(C(N)=O)CC3)nc21	5000 nM and 3000 nM
CC(C)n1cnc2c(NCc3ccc(-c4ccccc4)cc3)nc(N[C@H]3CC[C@H](NS(=O)(=O)C(F)(F)F)CC3)nc21	3000 nM and 2000 nM and 4000 nM
CC(C)n1cnc2c(NCc3ccc(-c4ccccc4)cc3)nc(N[C@H]3CC[C@H](NS(C)(=O)=O)CC3)nc21	200 nM and 100 nM
CC(=O)NCCNc1nc(NCc2ccc(-c3ccccc3)cc2)c2ncn(C(C)C)c2n1	3000 nM and 4000 nM
CCCCN[C@H]1CC[C@H](Nc2nc(NCc3ccc(-c4ccccc4)cc3)c3ncn(C(C)C)c3n2)CC1	500 nM and 300 nM
COC(=O)N[C@H]1CC[C@H](Nc2nc(NCc3ccc(-c4ccccc4)cc3)c3ncn(C(C)C)c3n2)CC1	700 nM and 400 nM and 300 nM
CC(=O)N[C@H]1CC[C@H](Nc2nc(NCc3ccc(-c4cccc(C)c4)cc3)c3ncn(C(C)C)c3n2)CC1	400 nM and 200 nM
CC(C)n1cnc2c(NCc3ccc(-c4ccccc4)cc3)nc(N[C@H]3CC[C@H](N4C(=O)CCC4=O)CC3)nc21	300 nM and 200 nM and 500 nM
CC(C)n1cnc2c(NCCc3ccc(-c4ccsc4)cc3)nc(N[C@H]3CC[C@H](NC(=O)OC(C)(C)C)CC3)nc21	> 10000 nM and 7000 nM
CCN[C@H]1CC[C@H](Nc2nc(NCc3ccc(-c4ccccc4)cc3)c3ncn(C(C)C)c3n2)CC1	2000 nM and 900 nM
CCN(C(C)=O)[C@H]1CC[C@H](Nc2nc(NCc3ccc(-c4ccccc4)cc3)c3ncn(C(C)C)c3n2)CC1	600 nM and 800 nM
CC(C)n1cnc2c(NCc3ccc(-c4ccccc4)cc3)nc(NC[C@H](C)NC(=O)OC(C)(C)C)nc21	300 nM and 100 nM
CC(C)n1cnc2c(NCc3ccc(-c4ccccc4)cc3)nc(N[C@H]3CC[C@H](NCC4CC4)CC3)nc21	300 nM
CC(C)n1cnc2c(NCc3ccc(-c4ccccc4)cc3)nc(NCCCN)nc21	300 nM and 600 nM
CC(C)n1cnc2c(NCc3ccc(-c4ccccc4)cc3)nc(N3CCC(N)C3)nc21 (stereo unspecified)	500 nM
CC(C)n1cnc2c(NCc3ccc(-c4ccccc4)cc3)nc(N[C@H]3CC[C@H](NC(=O)C4CC4)CC3)nc21	300 nM
CC(C)n1cnc2c(NCc3ccc(-c4ccccc4)cc3)nc(N[C@H]3CC[C@H](N(CC4CC4)CC4CC4)CC3)nc21	30 nM
CC(C)n1cnc2c(NCc3ccc(-c4ccccc4)cc3)nc(NCCN)nc21	200 nM and 400 nM
CCn1cnc2c(NCc3ccc(Cl)cc3)nc(N[C@H]3CCCC[C@H]3N)nc21	3000 nM
CCC(=O)N[C@H]1CC[C@H](Nc2nc(NCc3ccc(-c4ccccc4)cc3)c3ncn(C(C)C)c3n2)CC1	200 nM and 400 nM and 300 nM
COc1cccc(-c2ccc(CNc3nc(N[C@H]4CC[C@H](NC(C)=O)CC4)nc4c3ncn4C(C)C)cc2)c1	300 nM and 400 nM
